Values joined by “and” are separate entries in the source; they are usually repeats but may differ in a detail not shown here. Equal entries are not always repeated.
Experiments:
[1] = system: MeV N gene RNA; experiment: Quantitative RT-PCR of MeV N RNA in PBMCs; type: in vivo; settings: for Supplemental Figure 3a source data, relative MeV N RNA in PBMCs, individual animals: therapeutic (d7)
Method: Organs (21 days post-infection) and PBMCs (twice a week) were frozen in RNAlater (Qiagen) at −80 °C until further processing. For the deceased animal, organs were frozen in RNAlater at the day of death. Lymph nodes were thawed on ice, transferred to TRIzol (ambion life technologies) and homogenized using a tissue homogenizer. Total RNA of lymph nodes and PBMCs was extracted following the TRIzol manufacturer’s protocol. RNA (1000 ng for lymph nodes; 110 ng for PBMCs) was then subjected to reverse transcription using random hexamer primers and Superscript III reverse transcriptase in accordance with the manufacturer’s protocols. Subsequent quantitative PCR (qPCR) was carried out using primer pairs specific for a fragment in the MeV N gene[23] or GAPDH gene(Supplementary Table 2) and the PowerUp SYBR Green Master Mix (Thermo Fisher Scientific) in an Applied Biosystems 7500 Real-Time PCR system. Samples were normalized for GAPDH. The comparative (ΔΔCt) Ct method was applied to determine relative amounts of N-encoding RNA present in samples from treated animals compared to those obtained from untreated control animals (lymph nodes) or compared to those obtained from untreated control animals on day 7 post-infection (peak PBMC virus titer).

[2] = system: MV/FrankfurtMain.DEU/17.11 (genotype D8); experiment: Clinical signs (rash score) in MeV-infected squirrel monkeys; settings: for animals that developed spots or mild rash in the face or inguinal region: 50 mg/kg b.i.d. 14 days
Method: (§1) All animal experiments were carried out in compliance with the regulations of German animal protection laws and authorized by the Regierungspräsidium Darmstadt, Germany (Dezernat V54 – Veterinärwesen und Verbraucherschutz, Hilpertstrasse 31, 64295 Darmstadt). Adult male and female squirrel monkeys (Saimiri sciureus) were obtained from BioPRIM, 31450 Baziege, or CNRS 0846 Primatologie, 13790 Rousset, France. Each experimental group was housed in a separate room, and animals of the same sex were caged together within the respective groups. For the single-dose pharmacokinetic experiment, animals were anesthetized, and the drug was given through a stomach tube at a concentration of 50 mg/kg bodyweight. Blood samples were collected after 15, 30, and 60 min, and 2, 3, 6, and 24 h. For efficacy assessment, groups of 6 animals were left untreated or treated with 50 mg/kg of ERDRP-0519 twice daily for two weeks, starting either 12 h before or 3 or 7 days after intranasal infection with 10^6 TCID50 of MV/FrankfurtMain.DEU/17.11. Clinical signs, rectal temperature, and weight were recorded daily, and throat swabs and blood samples were collected before infection and twice weekly thereafter. On day 21 post-infection, the animals were euthanized, necropsied, and samples were collected for histological analysis.

[3] = Trough serum concentration during 14-day b.i.d. oral treatment of infected squirrel monkeys; settings: for ERDRP-0519 trough serum concentration: 50 mg/kg b.i.d. oral
Method: as §1
Drug concentrations were determined using an internal standard and a reversed phase isocratic HPLC method with positive ion electrospray ionization (ESI) mass spectrometry detection (LC/MS/MS) on an AB-SCIEX API 5500 MS/MS instrument (5 μl injection volume). Pharmacokinetic parameters were estimated using WinNonlin 5.3 (Pharsight).

With `Cn1nc(C(F)(F)F)cc1C(=O)Nc1ccc(S(=O)(=O)N2CCCC[C@H]2CCN2CCOCC2)cc1` [ERDRP-0519] the “Supplemental Figure 3a source data, relative MeV N RNA in PBMCs, individual animals” value ([1]; time (d) 3) was -13.8644 and -13.9177 and -9.909 and -10.1407 and -11.3735 and -9.308, the “Supplemental Figure 3a source data, relative MeV N RNA in PBMCs, individual animals” value ([1]; time (d) 7) was -0.7497 and -4.549 and -6.525 and -1.948 and -0.04871 and -5.313 and the “Supplemental Figure 3a source data, relative MeV N RNA in PBMCs, individual animals” value ([1]; time (d) 10) was -4.45. The “Supp. Figure 3a, relative MeV N RNA in PBMCs, Mean Diff.” value (from here on “Supp. Figure 3a, relative MeV N RNA”) ([1]; untreated vs. prophylactic, Day 0) was -1.268, the “Supp. Figure 3a, relative MeV N RNA” value ([1]; untreated vs. prophylactic, Day 3) was 0.4295 and the “Supp. Figure 3a, relative MeV N RNA” value ([1]; untreated vs. prophylactic, Day 7) was 11.48. For the same molecule, the “Supp. Figure 3a, relative MeV N RNA” value ([1]; untreated vs. prophylactic, Day 10) was 11.3, the “Supp. Figure 3a, relative MeV N RNA” value ([1]; untreated vs. prophylactic, Day 14) was 6.945 and the “Supp. Figure 3a, relative MeV N RNA” value ([1]; untreated vs. prophylactic, Day 17) was 2.967. The “Supp. Figure 3a, relative MeV N RNA” value ([1]; untreated vs. prophylactic, Day 21) was 0.4094, the “Supp. Figure 3a, relative MeV N RNA” value ([1]; untreated vs. therapeutic (d3), Day 0) was -0.325 and the “Supp. Figure 3a, relative MeV N RNA” value ([1]; untreated vs. therapeutic (d3), Day 3) was 0.4421. The “Supp. Figure 3a, relative MeV N RNA” value ([1]; untreated vs. therapeutic (d3), Day 7) was 9.205, the “Supp. Figure 3a, relative MeV N RNA” value ([1]; untreated vs. therapeutic (d3), Day 10) was 8.257 and the “Supp. Figure 3a, relative MeV N RNA” value ([1]; untreated vs. therapeutic (d3), Day 14) was 5.316. The “Supp. Figure 3a, relative MeV N RNA” value ([1]; untreated vs. therapeutic (d3), Day 17) was 3.169, the “Supp. Figure 3a, relative MeV N RNA” value ([1]; untreated vs. therapeutic (d3), Day 21) was 3.351 and the “Supp. Figure 3a, relative MeV N RNA” value ([1]; untreated vs. therapeutic (d7), Day 0) was -2.049. The “Supp. Figure 3a, relative MeV N RNA” value ([1]; untreated vs. therapeutic (d7), Day 3) was -0.2124, the “Supp. Figure 3a, relative MeV N RNA” value ([1]; untreated vs. therapeutic (d7), Day 7) was 3.189 and the “Supp. Figure 3a, relative MeV N RNA” value ([1]; untreated vs. therapeutic (d7), Day 10) was 3.285. The “Supp. Figure 3a, relative MeV N RNA” value ([1]; untreated vs. therapeutic (d7), Day 14) was 0.916, the “Supp. Figure 3a, relative MeV N RNA” value ([1]; untreated vs. therapeutic (d7), Day 17) was 0.1414 and the “Supp. Figure 3a, relative MeV N RNA” value ([1]; untreated vs. therapeutic (d7), Day 21) was -0.1552. For the same molecule, the “severe or generalized rash” value ([2]; all treated groups) was “none of the treated animals experienced severe or generalized rash”, the “animals that developed spots or mild rash in the face or inguinal region” value ([2]; day 3 therapeutic group) was “Four of six animals” and the “deaths during the study” value ([2]; day 3 therapeutic group, day 15 post-infection, authors conclude unrelated to drug or MeV) was “One animal in the day 3 therapeutic group developed mild diarrhea and deceased”. For the same molecule, the “animals that developed spots or mild rash in the face or inguinal region” value ([2]; day 7 therapeutic group) was “all animals”, the measles-typical clinical signs ([2]; prophylactic group, 50 mg/kg b.i.d. 14 days from 12 h prior to infection) was “remained free of measles-typical clinical signs” and the “ERDRP-0519 trough serum concentration” value ([3]; 0 days post-treatment, individual animals) was 0 µM and 0.05627 µM and 0.03323 µM. The “ERDRP-0519 trough serum concentration” value ([3]; 3 days post-treatment, individual animals) was 0.9158 µM and 2.53 µM and 4.796 µM and 7.1567 µM and 0.8139 µM and 7.176 µM and 3.758 µM and 1.907 µM and 3.569 µM and 2.058 µM and 2.606 µM and 7.006 µM and 2.984 µM and 1.541 µM and 2.285 µM, the “ERDRP-0519 trough serum concentration” value ([3]; 7 days post-treatment, individual animals) was 0.9763 µM and 1.28 µM and 2.908 µM and 3.21 µM and 2.4548 µM and 4.759 µM and 3.323 µM and 2.832 µM and 2.134 µM and 0.6741 µM and 2.096 µM and 3.644 µM and 0.525 µM and 0.5703 µM and the “ERDRP-0519 trough serum concentration” value ([3]; 10 days post-treatment, individual animals) was 1.654 µM and 2.228 µM and 2.832 µM and 4.4753 µM and 4.4 µM and 4.664 µM and 1.699 µM and 1.669 µM and 0.9989 µM and 0.9857 µM and 2.153 µM and 3.116 µM and 0.6949 µM and 1.573 µM and 0.608 µM. The “ERDRP-0519 trough serum concentration” value ([3]; 14 days post-treatment, individual animals) was 0.08309 µM and 0.0727 µM and 0.355 µM and 0.6534 µM and 1.862 µM and 2.172 µM and 2.474 µM and 1.513 µM and 0.2417 µM and 0.676 µM and 1.412 µM and 0.1537 µM and 0.3267 µM and 0.02398 µM, the concentration at 7 days post-infection ([3]; both, monkey, serum, oral, 50 mg/kg twice daily, ERDRP-0519 serum conc., therapeutic(d7) group, day 7 post-infection, individual animals) was 0 nM and the “Mean drug plasma concentration of all animals over the full study period” value ([3]; monkey, in vivo) was ~ 1.6 µM. For the same molecule, the “drug accumulation on repeat-dosing” value ([3]; multi-dose b.i.d., 15 animals) was “does not result in ERDRP-0519 accumulation”.
